Data: US5824692A (priority 1995, dated 1998)

Each compound was assayed on dopamine release, synaptosomes from the striatal area of rat brain (assay: Dopamine release from rat striatal synaptosomes). Details: [3H]-dopamine release, relative to (S)-(-)-nicotine.
Assay type: biochemical, rat (Sprague-Dawley)
Method: Determination of Dopamine Release
Dopamine release was measured by preparing synaptosomes from the striatal area of rat brain obtained from Sprague-Dawley rats generally according to the procedures set forth by Nagy et al., J. Neurochem., Vol. 43, pp. 1114-1123 (1984). Striata from 4 rats were homogenized in 2 ml of 0.32M sucrose buffered with 5 mM HEPES (pH 7.5), using a glass-Teflon tissue grinder. The homogenate was diluted to 5 ml with additional homogenization solution and centrifuged at 1,000 x g for 10 min. This procedure was repeated on the new pellet and the resulting supernatant was centrifuged at 12,000 x g for 20 min. A 3 layer discontinuous Percoll gradient consisting of 16 percent, 10 percent and 7.5 percent Percoll in HEPES-buffered sucrose was made with the final pellet dispersed in the top layer. After centrifugation at 15,000 x g for 20 min., the synaptosomes were recovered above the 16 percent layer with a Pasteur pipette, diluted with 8 ml of perfusion buffer (128 mM NaCl, 2.4 mM KCl, 3.2 mM CaCl2, 1.2 mM KH2 PO4, 1.2 mM MgSO4, 25 mM HEPES pH 7.4, 10 mM dextrose, 1 mM ascorbate, 0.01 mM pargyline), and centrifuged at 15,000 x g for 20 min. The new pellet was collected and re-suspended in perfusion buffer. The synaptosome suspension was incubated for 10 min. at 37° C. [^3 H]-Dopamine (Amersham, 40-60 Ci/mmol) was added to the suspension to give a final concentration of 0.1 uM, and the suspension was incubated for another 5 min. Using this method, 30 to 90 percent of the dopamine was taken up into the synaptosomes, as determined by scintillation counting following filtration through glass fiber filters soaked with 0.5 percent polyethyleneimine. A continuous perfusion system was used to monitor release following exposure to each ligand. Synaptosomes were loaded onto glass fiber filters (Gelman type A/E). Perfusion buffer was dripped onto the filters (0.2-0.3 ml/min.) and pulled through the filters with a peristaltic pump. Synaptosomes were washed with perfusion buffer for a minimum of 20 min. before addition of the ligand. After the addition of 0.2 ml of a solution containing various concentrations of ligand, the perfusate was collected into scintillation vials at 1 min. intervals and the dopamine released was quantified by scintillation counting. Peaks of radioactivity released above background were summed and the average basal release during that time was subtracted from the total.

| Compound | Dopamine Release Emax |
| --- | --- |
| CNCC/C=C/c1ccc(C)nc1 [Sample No. 6, (E)-N-methyl-4-[3-(6-methylpyrindin)yl]-3-butene-1-amine] | 60 % nicotine |
| CNCC/C=C/c1cccnc1 [Sample No. C-2, (E)-metanicotine, reference compound] | 80 % nicotine |
| CNCC/C=C\c1cccnc1 [Sample No. 5, (Z)-metanicotine] | 88 % nicotine |
| CN1CCC[C@H]1c1cccnc1 [Sample No. C-1, (S)-(-)-nicotine, reference compound] | 100 % nicotine |
| COc1cncc(/C=C/CCN)c1 [Sample No. 3, (E)-4-[3-(5-methoxypyridin)yl]-3-butene-1-amine monofumarate] | 95 % nicotine |
| CNCC/C=C/c1cncnc1 [Sample No. 2, (E)-N-methyl-4-(5-pyrimidinyl)-3-butene-1-amine] | 77 % nicotine |
| CNCCC#Cc1cccnc1 [Sample No. 4, N-Methyl-4-(3-pyridinyl)-3-butyne-1-amine] | 87 % nicotine |
| NCC/C=C/c1cncnc1.O=C(O)/C=C/C(=O)O [Sample No. 1, (E)-4-(5-pyrimidinyl)-3-butene-1-amine monofumarate] | 113 % nicotine |
